# Key:
# Assay in all cases: cells
# Format in all cases: functional, cell-based
# BHY = details: Homo sapiens;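 also: cell growth inhibition read out by a viability assay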
# Description: SANGER: Inhibition of human BHY cell growth in a cell viability assay.
# OAW-42 = details: Homo sapiens;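 also: growth inhibition of OAW-42 cells, read out with a cell viability assay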
# Description: SANGER: Inhibition of human OAW-42 cell growth in a cell viability assay.
# NCI-H1563 = details: Homo sapiens;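 also: growth inhibition of human NCI-H1563 cells, read out with a cell viability assay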
# Description: SANGER: Inhibition of human NCI-H1563 cell growth in a cell viability assay.
# NCI-H1437 = details: Homo sapiens;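 also: growth inhibition of human NCI-H1437 cells, read out by a cell viability assay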
# Description: SANGER: Inhibition of human NCI-H1437 cell growth in a cell viability assay.
# COLO-679 = details: Homo sapiens
# Description: SANGER: Inhibition of human COLO-679 cell growth in a cell viability assay.
# OVCAR-3 = details: Homo sapiens;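 also: growth inhibition of human OVCAR-3 cells, determined by a cell viability assay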
# Description: SANGER: Inhibition of human OVCAR-3 cell growth in a cell viability assay.
# HCC1395 = details: Homo sapiens;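 also: growth inhibition of HCC1395 cells, read out by a cell viability assay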
# Description: SANGER: Inhibition of human HCC1395 cell growth in a cell viability assay.
# CWR22R = details: Homo sapiens, 22Rv1;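 also: growth inhibition of 22Rv1 cells, read out with a cell viability assay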
# Description: SANGER: Inhibition of human 22RV1 cell growth in a cell viability assay.
# AU565 = details: Homo sapiens;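 also: cell viability assay measuring growth inhibition of human AU565 cells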
# Description: SANGER: Inhibition of human AU565 cell growth in a cell viability assay.
# Ca-Ski = details: Homo sapiens;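 also: cell viability assay measuring inhibition of Ca-Ski cell growth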
# Description: SANGER: Inhibition of human Ca-Ski cell growth in a cell viability assay.
# LoVo = details: Homo sapiens;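 also: growth inhibition of human LoVo cells, read out with a cell viability assay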
# Description: SANGER: Inhibition of human LoVo cell growth in a cell viability assay.
# PC-14 = details: Homo sapiens;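 also: cell viability assay measuring inhibition of PC-14 cell growth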
# Description: SANGER: Inhibition of human PC-14 cell growth in a cell viability assay.
# G-361 = details: Homo sapiens
# Kasumi 1 = details: Homo sapiens;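 also: growth inhibition of human Kasumi-1 cells, read out by a cell viability assay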
# Description: SANGER: Inhibition of human KASUMI-1 cell growth in a cell viability assay.
# LCLC-103H cell line = details: Homo sapiens
# Description: SANGER: Inhibition of human LCLC-103H cell growth in a cell viability assay.
# A-427 = details: Homo sapiens;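 also: growth inhibition of human A-427 cells, read out by a cell viability assay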
# Description: SANGER: Inhibition of human A427 cell growth in a cell viability assay.
# SW1990 = details: Homo sapiens;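 also: cell growth inhibition determined with a viability assay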
# Description: SANGER: Inhibition of human SW1990 cell growth in a cell viability assay.
# CAL-39 = details: Homo sapiens;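 also: cell viability assay measuring growth inhibition of CAL-39 cells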
# Description: SANGER: Inhibition of human CAL-39 cell growth in a cell viability assay.
# A2780 = details: Homo sapiens;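 also: growth inhibition of A2780 cells, read out with a cell viability assay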
# Description: SANGER: Inhibition of human A2780 cell growth in a cell viability assay.
# NCI-H727 = details: Homo sapiens;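 also: growth inhibition of human NCI-H727 cells, read out with a cell viability assay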
# Description: SANGER: Inhibition of human NCI-H727 cell growth in a cell viability assay.
# A-375 = details: Homo sapiens;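 also: growth inhibition of A375 cells, read out with a cell viability assay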
# Description: SANGER: Inhibition of human A375 cell growth in a cell viability assay.
# CHL-1 = details: Homo sapiens;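 also: cell growth inhibition, read out with a cell viability assay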
# Description: SANGER: Inhibition of human CHL-1 cell growth in a cell viability assay.
# HCC1937 = details: Homo sapiens;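 also: growth inhibition measured with a cell viability read-out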
# Description: SANGER: Inhibition of human HCC1937 cell growth in a cell viability assay.
# NB12 = details: Homo sapiens;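 also: growth inhibition of human NB12 cells, read out by a cell viability assay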
# Description: SANGER: Inhibition of human NB12 cell growth in a cell viability assay.
# SK-MES-1 = details: Homo sapiens;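 also: growth inhibition of human SK-MES-1 cells, read out with a cell viability assay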
# Description: SANGER: Inhibition of human SK-MES-1 cell growth in a cell viability assay.
# SN12C = details: Homo sapiens;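 also: growth inhibition of human SN12C cells, measured by a cell viability assay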
# Description: SANGER: Inhibition of human SN12C cell growth in a cell viability assay.
# NCI-H1573 = details: Homo sapiens;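 also: growth inhibition of NCI-H1573 cells, read out with a cell viability assay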
# Description: SANGER: Inhibition of human NCI-H1573 cell growth in a cell viability assay.
# NCI-H1623 = details: Homo sapiens;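 also: cell viability assay used as the read-out for growth inhibition of NCI-H1623 cells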
# Description: SANGER: Inhibition of human NCI-H1623 cell growth in a cell viability assay.
# HSC-3 = details: Homo sapiens
# Description: SANGER: Inhibition of human HSC-3 cell growth in a cell viability assay.
# DK-MG = details: Homo sapiens;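 also: growth inhibition of DK-MG cells, read out with a cell viability assay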
# Description: SANGER: Inhibition of human DK-MG cell growth in a cell viability assay.
# HSC-2 = details: Homo sapiens;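 also: growth inhibition of human HSC-2 cells, read out by a cell viability assay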
# Description: SANGER: Inhibition of human HSC-2 cell growth in a cell viability assay.
# OVCAR-5 = details: Homo sapiens;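 also: growth inhibition of human OVCAR-5 cells, read out with a cell viability assay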
# Description: SANGER: Inhibition of human OVCAR-5 cell growth in a cell viability assay.
# NUGC-3 = details: Homo sapiens;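 also: growth inhibition of human NUGC-3 cells, read out with a cell viability assay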
# Description: SANGER: Inhibition of human NUGC-3 cell growth in a cell viability assay.
# T47D = details: Homo sapiens;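 also: growth inhibition of human T47D cells, measured with a cell viability assay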
# Description: SANGER: Inhibition of human T47D cell growth in a cell viability assay.
# U-251 = details: Homo sapiens;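 also: growth inhibition of human U-251 cells, read out through a cell viability assay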
# Description: SANGER: Inhibition of human U251 cell growth in a cell viability assay.
# BXPC-3 = details: Homo sapiens;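 also: growth inhibition of human BxPC-3 cells, read out by a cell viability assay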
# Description: SANGER: Inhibition of human BxPC-3 cell growth in a cell viability assay.
# NCI-H441 = details: Homo sapiens;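 also: growth inhibition of NCI-H441 cells, read out with a cell viability assay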
# Description: SANGER: Inhibition of human NCI-H441 cell growth in a cell viability assay.
# Daoy = details: Homo sapiens;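 also: daoy cell growth inhibition, read out as cell viability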
# Description: SANGER: Inhibition of human Daoy cell growth in a cell viability assay.
# MeWo = details: Homo sapiens;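 also: growth inhibition of MeWo cells, determined by a cell viability readout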
# Description: SANGER: Inhibition of human Mewo cell growth in a cell viability assay.
# HT-1080 = details: Homo sapiens
# Description: SANGER: Inhibition of human HT-1080 cell growth in a cell viability assay.
# D-542MG = details: Homo sapiens
# Description: SANGER: Inhibition of human D-542MG cell growth in a cell viability assay.
# NB14 = details: Homo sapiens;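 also: growth inhibition of NB14 cells measured with a cell viability assay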
# Description: SANGER: Inhibition of human NB14 cell growth in a cell viability assay.
# MDA-MB-231 = details: Homo sapiens
# Description: SANGER: Inhibition of human MDA-MB-231 cell growth in a cell viability assay.
# C-33-A = details: Homo sapiens;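 also: cell viability assay measuring growth inhibition of C-33-A cells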
# Description: SANGER: Inhibition of human C-33-A cell growth in a cell viability assay.
# NCI-N87 = details: Homo sapiens;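 also: growth inhibition of human NCI-N87 cells, read out with a cell viability assay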
# Description: SANGER: Inhibition of human NCI-N87 cell growth in a cell viability assay.
# J82 = details: Homo sapiens;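 also: growth inhibition of J82 cells, read out with a cell viability assay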
# Description: SANGER: Inhibition of human J82 cell growth in a cell viability assay.
# MDA-MB-157 = details: Homo sapiens
# Description: SANGER: Inhibition of human MDA-MB-157 cell growth in a cell viability assay.
structure (smiles),measurement,setting,value
COc1cc(Nc2c(C#N)cnc3cc(OCCCN4CCN(C)CC4)c(OC)cc23)c(Cl)cc1Cl [BOSUTINIB],IC50,BHY,1230 nM
same,IC50,OAW-42,> 2000 nM
same,IC50,NCI-H1563,> 2000 nM
same,IC50,NCI-H1437,> 2000 nM
same,IC50,COLO-679,> 2000 nM
same,IC50,OVCAR-3,> 2000 nM
same,IC50,HCC1395,> 2000 nM
same,IC50,CWR22R,> 2000 nM
same,IC50,AU565,> 2000 nM
same,IC50,Ca-Ski,> 2000 nM
same,IC50,LoVo,1980 nM
same,IC50,PC-14,1290 nM
same,IC50,G-361,> 2000 nM
same,IC50,Kasumi 1,723 nM
same,IC50,LCLC-103H cell line,> 2000 nM
same,IC50,A-427,> 2000 nM
same,IC50,SW1990,> 2000 nM
same,IC50,CAL-39,> 2000 nM
same,IC50,A2780,> 2000 nM
same,IC50,NCI-H727,> 2000 nM
same,IC50,A-375,1520 nM
same,IC50,CHL-1,555 nM
same,IC50,HCC1937,> 2000 nM
same,IC50,NB12,> 2000 nM
same,IC50,SK-MES-1,> 2000 nM
same,IC50,SN12C,> 2000 nM
same,IC50,NCI-H1573,> 2000 nM
same,IC50,NCI-H1623,> 2000 nM
same,IC50,HSC-3,1120 nM
same,IC50,DK-MG,> 2000 nM
same,IC50,HSC-2,> 2000 nM
same,IC50,OVCAR-5,> 2000 nM
same,IC50,NUGC-3,1290 nM
same,IC50,T47D,> 2000 nM
same,IC50,U-251,> 2000 nM
same,IC50,BXPC-3,> 2000 nM
same,IC50,NCI-H441,> 2000 nM
same,IC50,Daoy,> 2000 nM
same,IC50,MeWo,> 2000 nM
same,IC50,HT-1080,553 nM
same,IC50,D-542MG,> 2000 nM
same,IC50,NB14,> 2000 nM
same,IC50,MDA-MB-231,> 2000 nM
same,IC50,C-33-A,> 2000 nM
same,IC50,NCI-N87,> 2000 nM
same,IC50,J82,> 2000 nM
same,IC50,MDA-MB-157,> 2000 nM
C[C@]12O[C@H](C[C@]1(O)CO)n1c3ccccc3c3c4c(c5c6ccccc6n2c5c31)CNC4=O [LESTAURTINIB],IC50,BHY,872 nM
same,IC50,OAW-42,349 nM
same,IC50,NCI-H1563,> 2000 nM
same,IC50,NCI-H1437,> 2000 nM
same,IC50,COLO-679,383 nM
same,IC50,OVCAR-3,> 2000 nM
same,IC50,HCC1395,> 2000 nM
same,IC50,CWR22R,1400 nM
same,IC50,AU565,1650 nM
same,IC50,Ca-Ski,> 2000 nM
same,IC50,LoVo,31.9 nM
same,IC50,PC-14,449 nM
same,IC50,G-361,221 nM
same,IC50,Kasumi 1,19.1 nM
same,IC50,LCLC-103H cell line,> 2000 nM
same,IC50,A-427,23.4 nM
same,IC50,SW1990,1380 nM
same,IC50,CAL-39,481 nM
same,IC50,A2780,94 nM
same,IC50,NCI-H727,768 nM
same,IC50,A-375,332 nM
same,IC50,CHL-1,13.5 nM
same,IC50,HCC1937,> 2000 nM
same,IC50,NB12,1310 nM
same,IC50,SK-MES-1,46.5 nM
same,IC50,SN12C,398 nM
same,IC50,NCI-H1573,686 nM
same,IC50,NCI-H1623,1650 nM
same,IC50,HSC-3,46.8 nM
same,IC50,DK-MG,1100 nM
same,IC50,HSC-2,1500 nM
same,IC50,OVCAR-5,504 nM
same,IC50,NUGC-3,> 2000 nM
same,IC50,T47D,> 2000 nM
same,IC50,U-251,> 2000 nM
same,IC50,BXPC-3,> 2000 nM
same,IC50,NCI-H441,> 2000 nM
same,IC50,Daoy,1040 nM
same,IC50,MeWo,718 nM
same,IC50,HT-1080,40.3 nM
same,IC50,D-542MG,> 2000 nM
same,IC50,NB14,19.6 nM
same,IC50,MDA-MB-231,586 nM
same,IC50,C-33-A,> 2000 nM
same,IC50,NCI-N87,> 2000 nM
same,IC50,J82,> 2000 nM
same,IC50,MDA-MB-157,276 nM
C[C@]1(c2nc3c(C(N)=O)cccc3[nH]2)CCCN1 [VELIPARIB],IC50,BHY,> 5000 nM
same,IC50,OAW-42,> 5000 nM
same,IC50,NCI-H1563,> 5000 nM
same,IC50,NCI-H1437,> 5000 nM
same,IC50,COLO-679,> 5000 nM
same,IC50,OVCAR-3,> 5000 nM
same,IC50,HCC1395,> 5000 nM
same,IC50,CWR22R,> 5000 nM
same,IC50,AU565,> 5000 nM
same,IC50,Ca-Ski,> 5000 nM
same,IC50,LoVo,> 5000 nM
same,IC50,PC-14,> 5000 nM
same,IC50,G-361,> 5000 nM
same,IC50,Kasumi 1,> 5000 nM
same,IC50,LCLC-103H cell line,> 5000 nM
same,IC50,A-427,> 5000 nM
same,IC50,SW1990,> 5000 nM
same,IC50,CAL-39,> 5000 nM
same,IC50,A2780,> 5000 nM
same,IC50,NCI-H727,> 5000 nM
same,IC50,A-375,> 5000 nM
same,IC50,CHL-1,> 5000 nM
same,IC50,HCC1937,> 5000 nM
same,IC50,NB12,> 5000 nM
same,IC50,SK-MES-1,> 5000 nM
same,IC50,SN12C,> 5000 nM
same,IC50,NCI-H1573,> 5000 nM
same,IC50,NCI-H1623,> 5000 nM
same,IC50,HSC-3,> 5000 nM
same,IC50,DK-MG,> 5000 nM
same,IC50,HSC-2,> 5000 nM
same,IC50,OVCAR-5,> 5000 nM
same,IC50,NUGC-3,> 5000 nM
same,IC50,T47D,> 5000 nM
same,IC50,U-251,> 5000 nM
same,IC50,BXPC-3,> 5000 nM
same,IC50,NCI-H441,> 5000 nM
same,IC50,Daoy,> 5000 nM
same,IC50,MeWo,> 5000 nM
same,IC50,HT-1080,> 5000 nM
same,IC50,D-542MG,> 5000 nM
same,IC50,NB14,> 5000 nM
same,IC50,MDA-MB-231,> 5000 nM
same,IC50,C-33-A,> 5000 nM
same,IC50,NCI-N87,> 5000 nM
same,IC50,J82,> 5000 nM
same,IC50,MDA-MB-157,> 5000 nM
CC[C@]1(O)C[C@@H]2CN(CCc3c([nH]c4ccccc34)[C@@](C(=O)OC)(c3cc4c(cc3OC)N(C)[C@H]3[C@@](O)(C(=O)OC)[C@H](OC(C)=O)[C@]5(CC)C=CCN6CC[C@]43[C@@H]65)C2)C1 [VINBLASTINE],IC50,BHY,15.3 nM
same,IC50,OAW-42,> 100 nM
same,IC50,NCI-H1563,21.5 nM
same,IC50,NCI-H1437,7.76 nM
same,IC50,COLO-679,> 100 nM
same,IC50,OVCAR-3,46.9 nM
same,IC50,HCC1395,29.2 nM
same,IC50,CWR22R,9.82 nM
same,IC50,AU565,3.45 nM
same,IC50,Ca-Ski,4.69 nM
same,IC50,LoVo,6.03 nM
same,IC50,PC-14,3.53 nM
same,IC50,G-361,> 100 nM
same,IC50,Kasumi 1,8.06 nM
same,IC50,LCLC-103H cell line,1.5 nM
same,IC50,A-427,12.5 nM
same,IC50,SW1990,61.4 nM
same,IC50,CAL-39,5.11 nM
same,IC50,A2780,4.61 nM
same,IC50,NCI-H727,> 100 nM
same,IC50,A-375,23.5 nM
same,IC50,CHL-1,12 nM
same,IC50,HCC1937,> 100 nM
same,IC50,NB12,61.4 nM
same,IC50,SK-MES-1,8.64 nM
same,IC50,SN12C,16.1 nM
same,IC50,NCI-H1573,30.7 nM
same,IC50,NCI-H1623,> 100 nM
same,IC50,HSC-3,4.39 nM
same,IC50,DK-MG,6.65 nM
same,IC50,HSC-2,20.2 nM
same,IC50,OVCAR-5,13.6 nM
same,IC50,NUGC-3,3.46 nM
same,IC50,T47D,7.71 nM
same,IC50,U-251,5.02 nM
same,IC50,BXPC-3,8.01 nM
same,IC50,NCI-H441,> 100 nM
same,IC50,Daoy,3.1 nM
same,IC50,MeWo,9.13 nM
same,IC50,HT-1080,4.23 nM
same,IC50,D-542MG,> 100 nM
same,IC50,NB14,4.95 nM
same,IC50,MDA-MB-231,44.6 nM
same,IC50,C-33-A,12.7 nM
same,IC50,NCI-N87,5.67 nM
same,IC50,J82,68.5 nM
same,IC50,MDA-MB-157,9.06 nM
